The values that follow come from patent US8173644B2, “3-substituted-[1,2,3]-benzotriazinone compound for enhancing glutamatergic synaptic responses” (Les Laboratoires Servier, priority 2007, dated 2012).

Test [1] deals with field EPSP (perforant path / dentate gyrus of the hippocampus). Description: In vivo physiological testing: field EPSP in dentate gyrus of hippocampus of anesthetized animals. The settings on record: dose of 5 mg/kg, iv administration. How it is done: The physiological effects of the invention compound were tested in vivo in anesthetized animals according to the following procedures.
Animals are maintained under anesthesia by phenobarbital administered using a Hamilton syringe pump. Stimulating and recording electrodes are inserted into the perforant path and dentate gyrus of the hippocampus, respectively. Once electrodes are implanted, a stable baseline of evoked responses are elicited using single monophasic pulses (100 μs pulse duration) delivered at 3/min to the stimulating electrode. Field EPSPs are monitored until a stable baseline is achieved (about 20-30 min), after which a solution of test compound in HPCD is injected intraperitoneally and evoked field potentials are recorded. Evoked potentials are recorded for approximately 2 h following drug administration or until the amplitude of the field EPSP returns to baseline. In the latter instance, it is common that an iv administration is also carried out with an appropriate dose of the same test compound.

Test [2] has as its system AMPA receptor. The test can be described thus: AMPA mediated whole cell currents in cultured cortical neurons (patch clamp, glutamate-induced steady-state current). In kind it is cell-based, Sprague-Dawley rats. The settings on record: cultured rat cortical neurons, 500 μM glutamate, voltage-clamped at −80 mV; read-out: EC2x value (concentration at which the glutamate induced current is increased by 100%). How it is done:
Synaptic responses mediated by AMPA receptors are increased according to the method of the invention, using the compound described herein. […] The in vitro assay is described as follows. Cortical cells were prepared from day 18-19 embryonic Sprague-Dawley rats and recorded after 3 days in culture. The extracellular solution (ECS) contained (in mM): NaCl (145), KCl (5.4), HEPES (10), MgCl2 (0.8), CaCl2 (1.8), glucose (10), sucrose (30); pH. 7.4. In order to block the voltage-gated sodium currents, 40 nM TTX was added to the recording solution. […]
The whole-cell current was measured with patch-clamp amplifier (Axopatch 200B), filtered at 2 kHz, digitized at 5 kHz and recorded on a PC with pClamp 8. […] A baseline response for each cell was recorded using a 1 s pulse of 500 μM glutamate dissolved in ECS. Responses to test compound were then determined by application of a 10 s pulse of test compound followed by a 1 s pulse of the same concentration of test compound plus 500 μM glutamate and then 10 s of saline. This pulse sequence was repeated until a stable reading was obtained, or until sufficient data points were measured to allow extrapolation to a calculated maximum change.
The mean value of plateau current between 600 ms to 900 ms after application of glutamate or test compound plus glutamate was calculated and used as the parameter to measure the drug effect. […]

As to `O=C1c2cc3nnn(CCc4cccc(F)c4)c(=O)c3cc2OCN1C1CC1` [8-Cyclopropyl-3-[2-(3-fluorophenyl)ethyl]-7,8-dihydro-3H-[1,3]oxazino[6,5-g][1,2,3]-benzotriazine-4,9-dione], in test [1], the “increase in the amplitude of the field EPSP” value came to 10%. The EC2x (concentration that doubles the glutamate-induced current) in test [2] amounted to 100 nM.
